From patent US11154853B2, “Generation of data for use with antimicrobials” (GeneFluidics, Inc., priority 2017, dated 2021)
Read-outs that look alike come from different tables or passages of the source.

Test system: E. coli
Method: Susceptibility cultures can be started.
(§1) Then, the Proteus automated system can add 12 μL of 1M NaOH to the 30 μL sample. […] The Proteus system can then add 8 μL of 1M HCl. Ten microliters of the result can be placed on each of 4 sensors of the 16 available on the GeneFluidics, Inc. 16X EC chip. This chip can be incubated in the Proteus machine for 11 minutes at 43° C. After completion of this incubation, the chip can be washed and dried by Proteus. Ten microliters of 0.5 U/mL anti-fluorescein horseradish peroxidase (HRP) Fab fragments (Roche; diluted in 1.0% casein in […] phosphate-buffered saline, pH 7.4) can be injected into the sensor chambers and incubated for 2 minutes at 25° C.
as §1
For instance, a Helios potentiostat from GeneFluidics, Inc. was connected to the electrodes of the sensor chips and a potential of −250 mV was applied across the electrodes for one minute. During this time, the current generated by the electrochemical reaction was measured by the potentiostat. The average current measured in the final 10 seconds of the potentiostat reading constituted the final result of the assay.

**Q.** For `O=C(O)c1cn(C2CC2)c2cc(N3CCNCC3)c(F)cc2c1=O` [ciprofloxacin], which “average current signal of the four sensors (base susceptibility test)” value (0 minute susceptibility culture time, 0.4 μg antibiotic in 100 μL Mueller-Hinton broth, 5×10^5 CFU/mL) is on record?
**A.** 30 nA

**Q.** What about the “increase over the current level from base susceptibility test” value (60 minute susceptibility culture time) of the same compound?
**A.** 0%

**Q.** And the “current of processed sample” value (60 minute susceptibility culture time, 0.4 μg antibiotic in 100 μL Mueller-Hinton broth)?
**A.** 30 nA

**Q.** What about the “increase over the current level from base susceptibility test” value (90 minute susceptibility culture time) of the same compound?
**A.** 0%

**Q.** And the “reported result (resistant / susceptible)” value (E. coli from patient urine sample, at the concentration of antibiotic in the culture)?
**A.** susceptible
